Measured values from patent US20220062317A1, “NA+/K+ ATPASE INHIBITORS FOR USE IN THE PREVENTION OR TREATMENT OF METASTASIS” (UNIVERSITÄT BASEL, priority 2018, published 2022).
Entries after “also recorded” stand apart in the source; their conditions may differ. Structures can show the parent of a compound that is named as a salt.

Experiments:
[1] = tested on: BRx50 human CTC-derived cells; experiment: FDA-approved compound screen for CTC cluster dissociation (high content imaging); format: cell-based; details: even at lowest concentration tested (0.1 μM)
[2] = tested on: BR16 CTC-derived cells; experiment: as above; format: cell-based, human; details: even at lowest concentration tested (0.1 μM), 2 days, hypoxia
Protocol: In order to identify actionable vulnerabilities of CTC clusters, and to test whether the epigenetic and transcriptional features of clustered CTCs are reversible upon cluster dissociation into single cells the following steps were undertaken. First, the expression of all known cell-cell junction (CCJ) components in patient samples obtained from normal breast (TGCA REF), breast cancer (TOGA REF), single CTCs and CTC clusters were assessed (Aceto et al. Cell 2014). While breast cancer cells tend to only partially reduce their CCJ repertoire compared to normal breast cells, CTCs express only a small fraction of CCJ components, likely as a consequence to their increased motility. Yet, CTC clusters retain a higher number of CCJs as compared to single CTCs. […] To this end, 2′486 FDA-approved compounds were evaluated for their ability to dissociate clusters of human breast CTC-derived cells. Cluster dissociation was assessed using a high content screening microscope and comparing cells treated with each individual compound to steady state clustered BR16 cells and 40 μm-filtered BR16 single cell suspension as negative and positive controls, respectively (FIG. 4a). […] For the majority of the 2′486 FDA-approved compounds, when using a 5 μM concentration for 2 days in hypoxic conditions, no detectable reduction in cell viability (>70% viability) nor mean cluster size (>450 μm2) in BR16 CTC-derived cells was observed. […] These compounds include inhibitors of Na^+/K^+ ATPases (n=6), HDACs (n=2), nucleotide biosynthesis (n=5), kinases (n=4), GPCRs (n=2), cholesterol biosynthesis (n=1), nuclear export (n=1), tubulin (n=9), as well as DNA binding compounds (n=8) and antibiotics (n=1).
A library containing 2,486 FDA-approved compounds was purchased from the Nexus Platform ETH Zurich. Each compound was resuspended using CTC medium at a 15 μM concentration and 20 μl were aliquoted in duplicate in a total of 64 Flat Bottom Clear Ultra Low attachment 96-well plates (Corning, Cat #3474).
To reduce cluster size in CTC derived cell lines, a 40 μm cell strainer was used (Corning, Cat #431750). […] Plates were incubated in hypoxia (5% oxygen) for 2 days and then 20 μl were transferred into a 96 well Black/clear Tissue culture treated plate (BD Falcon, Cat #353219) containing 40 μl of D-PBS (Invitrogen, Cat #14190169) and stained for 1 hr at 37° C. with a final concentration of 4 μM Hoechst 34580 (Invitrogen, Cat #H21486), 2 μM TMRM (Invitrogen, Cat #T668) and 4 μM TOTO-3 (Invitrogen, Cat #T3604). For each plate, two positive controls (non-treated cells) and two negative controls (non-treated and […] cells) were included. Z-factors were calculated per individual plate using the following formula: Z′=1−3(σs+σc)/|μs−μc|^3 (σ: standard deviation, μ: mean, s: positive control and c: negative control) (Martin et al., PLoS One 9, e88338, 2014) and ranged between 0.62-0.937. Plates were scanned using Operetta High Content Imaging System (Perkin Elmer) and cluster analysis was performed using Harmony High Content Imaging and Analysis Software (Perkin Elmer).

[3] = tested on: LM2 xenografts; experiment: LM2 xenograft, spontaneous CTC clusters and metastasis; format: in vivo, NSG mice; details: LM2 xenograft, digoxin 2 mg/kg vs vehicle
[4] = tested on: BR16 xenografts; experiment: BR16 xenograft (mammary fat pad), spontaneous CTC clusters and metastasis; format: in vivo, NSG mice; details: digoxin 2 mg/kg vs vehicle
Protocol: Blood specimens for CTC analysis were obtained from University Hospital Basel after informed patient consent according to protocol EKNZ BASEC 2016-00067 and EK 321/10, which received ethical approval from the Swiss authorities (EKNZ, Ethics Committee northwest/central Switzerland). An average of 7.5 ml of blood per patient was drawn in EDTA vacutainers. Within 1 hr from blood draw, the blood was processed through Parsortix GEN3D6.5 Cell Separation Cassette (Angle Europe). For mouse studies, blood was retrieved via cardiac puncture and 1 ml of blood was similarly processed through a Parsortix device. Captured CTCs were further stained on Parsortix cassette with EpCAM-AF488 conjugated (CellSignaling, Cat #CST5198), HER2-AF488 (#324410, BioLegend), EGFR-FITC conjugated (GeneTex, Cat #GTX11400) and CD45-BV605 conjugated (Biolegend, Cat #304042 (anti-human); Cat #103140 (anti-mouse)) antibodies. For all other models (xenografts), carrying cancer cells stably expressing a GFP-Luciferase reporter, only anti-CD45 staining was performed, while CTCs were identified based on GFP expression. The number of captured CTCs, including single CTCs, CTC clusters and CTC-WBC clusters, was determined while cells were still in the cassette. CTCs were then released from the cassette in DPBS (#14190169, Gibco) onto ultra-low attachment plates (#3471-COR, Corning). Representative pictures were taken at 40× magnification with Leica DM14000 fluorescent microscope using Leica LAS and analyzed with ImageJ.
For tail vein experiments, NOD SCID Gamma (NSG) mice (Jackson Labs) were injected with 1×10^6 BR16-mCherry cells resuspended in 100 μl D-PBS and monitored with IVIS Lumina II (Perkin Elmer). For CTC xenograft mouse model isolation, 1×10^6 LM2-GFP, 1×10^6 BRx50-GFP or 1×10^6 BR16-GFP cells were resuspended in 100 μl of 50% Cultrex PathClear Reduced Growth Factor Basement Membrane Extract (R&D Biosystems, Cat #3533-010-02) in D-PBS and injected orthotopically in NSG mice. Blood draw was performed 4-5 weeks after tumor onset for LM2 cells, 5-6 months after tumor onset for BR16 and 6-7 months after tumor onset for BRx50 cells.

With `COc1cc2c(c(OC)c1OC)-c1ccc(OC)c(=O)cc1[C@@H](NC(C)=O)CC2` [colchicine] the mean cluster size [1] was “significant decrease in mean cluster size” and the mean cluster size [2] was “significant decrease in mean cluster size”.

With `C[C@H]1O[C@@H](O[C@H]2[C@@H](O)C[C@H](O[C@H]3[C@@H](O)C[C@H](O[C@H]4CC[C@@]5(C)[C@H](CC[C@@H]6[C@@H]5C[C@@H](O)[C@]5(C)[C@@H](C7=CC(=O)OC7)CC[C@]65O)C4)O[C@@H]3C)O[C@@H]2C)C[C@H](O)[C@@H]1O` [digoxin, Digoxin] the “formation of CTC clusters (CTC fold change)” value [3] was “reduced the formation”, the “formation of CTC-neutrophil clusters (CTC fold change)” value [3] was “reduced the formation” and the overall survival [3] was “prolonged overall survival”. The “tumor size / tumor growth rate over time” value [3] was “No significant differences are observed; also recorded: no significant difference”, the overall survival ([3]; listed as Digoxin) was “prolongs overall survival” and the “metastasis (metastatic index)” value [4] was “suppresses metastasis”. For the same molecule, the “number of CTC clusters” value [4] was “clear decrease”, the “number of CTC-neutrophil clusters” value [4] was “clear decrease” and the “tumor size / tumor growth rate over time” value [4] was “No significant differences are observed; also recorded: no significant difference”.

With `COc1cc([C@@H]2c3cc4c(cc3[C@H](O)[C@H]3COC(=O)[C@H]23)OCO4)cc(OC)c1OC` [podofilox] the mean cluster size [1] was “significant decrease in mean cluster size” and the mean cluster size [2] was “significant decrease in mean cluster size”.

With `COc1cc(OC)c(/C=C/S(=O)(=O)Cc2ccc(OC)c(NCC(=O)O)c2)c(OC)c1` [rigosertib] the mean cluster size [1] was “significant decrease in mean cluster size” and the mean cluster size [2] was “significant decrease in mean cluster size”.

In the case of `CC[C@]1(O)C[C@H]2CN(CCc3c([nH]c4ccccc34)[C@@](C(=O)OC)(c3cc4c(cc3OC)N(C=O)[C@H]3[C@@](O)(C(=O)OC)[C@H](OC(C)=O)[C@]5(CC)C=CCN6CC[C@]43[C@@H]65)C2)C1` [vincristine sulfate], the mean cluster size [1] is reported as “significant decrease in mean cluster size” and the mean cluster size [2] is reported as “significant decrease in mean cluster size”.
